Each block holds one molecule with its values, some of them ahead of it.
Key:
[1] = molecular target: R. etli pyruvate carboxylase (Rhizobium etli, UniProt Q2K340); test: Pyruvate carboxylase (PC) coupled enzyme assay (Payne and Morris) with E. coli cell extracts; type: biochemical; conditions: for effect of nicotinamide nucleotides on pyruvate carboxylase activity: cell-free crude extract from MG1655 pTrc99A-pyc, FIG. 9
Description: Pyruvate carboxylase (PC) enzyme assay. For pyruvate carboxylase activity measurements, 100 mL of mid-log phase culture was harvested by centrifugation at 7,000×g for 15 minutes at 4° C. and washed with 10 mL of 100 mM Tris-Cl (pH 8.0). The cells were then resuspended in 4 mL of 100 mM Tris-Cl (pH 8.0) and subsequently subjected to cell disruption by sonication. The cell debris was removed by centrifugation at 20,000×g for 15 minutes at 4° C. The pyruvate carboxylase activity was measured by the method of Payne and Morris (J. Gen. Microbiol., 59, 97-101 (1969)). In this assay the oxaloacetate produced by pyruvate carboxylase is converted to citrate by the addition of citrate synthase in the presence of acetyl CoA and 5,5-dithio-bis(2-nitro-benzoate) (DTNB) (Aldrich Chemical Co.); the homotetramer pyruvate carboxylase enzyme from R. etli requires acetyl coenzyme A for activation. The rate of increase in absorbence at 412 nm due to the presence of CoA-dependent formation of the 5-thio-2-nitrobenzoate was monitored, first after the addition of pyruvate and then after the addition of ATP. The difference between these two rates was taken as the ATP-dependent pyruvate carboxylase activity. The concentration of reaction components per milliliter of mixture was as follows: 100 mM Tris-Cl (pH 8.0), 5 mM MgCl2.H2O, 50 mM Na HCO3, 0.1 mM acetyl CoA, 0.25 mM DTNB, and 5 units (U) of citrate synthase. Pyruvate, ATP, ADP, or aspartate, were added as specified in the Results section, below. The reaction was started by adding 50 μl of cell extract. One unit of pyruvate carboxylase activity corresponds to the formation of 1 μmol of 5-thio-2-nitrobenzoate per mg of protein per minute. All enzyme assays were performed in triplicate and a standard error of less then 10% was observed. The total protein in the cell extracts was determined by the Lowry method (O. Lowry et al., J. Biol. Chem., 193, 265-275 (1951)).
R. etli pyruvate carboxylase can convert pyruvate to oxaloacetate in E. coli. To confirm that the expressed pyruvate carboxylase protein was enzymatically active in E. coli, the coupled enzyme assay developed by Payne and Morris was employed to assess pyruvate carboxylase activity (J. Payne et al., J. Gen. Microbiol., 59, 97-101 (1969)). Cell extracts containing the induced pUC18-pyc construct (MG1655 pUC18-pyc) were tested for pyruvate carboxylase activity using varying amounts of pyruvate, and compared to controls containing the pUC18 construct (MG1655 pUC18). ATP was added at a final concentration of 5 mM to the reaction mixture and pyruvate carboxylase activity was determined in the presence of increasing amounts of pyruvate. […] This value is in excellent agreement with other pyruvate carboxylase enzymes that have been studied (H. Feir et al., Can. J. Biochem., 47, 698-710 (1969); H. Modak et al., Microbiol., 141, 2619-2628 (1995); M. Scrutton et al., Arch. Biochem. Biophys., 164, 641-654 (1974)).
It is well documented that the α4 pyruvate carboxylase enzymes can be inhibited by either aspartate or adenosine diphosphate (ADP). Aspartate is the first amino acid that is synthesized from oxaloacetate and ADP is liberated when pyruvate carboxylase converts pyruvate to oxaloacetate. Pyruvate carboxylase activity in the presence of each of these inhibitors was evaluated using extracts of MG1655 cells that contained the pUC18-pyc construct. The effect of aspartate was analyzed by adding ATP and pyruvate to the reaction mixture to final concentrations of 5 mM and 6 mM, respectively, then determining pyruvate carboxylase activity in the presence of increasing amounts of aspartate. […] As expected, the pyruvate carboxylase activity was inhibited by aspartate and the specific activity decreased to approximately 43% in the presence of 8 mM aspartate. The effect of ADP was analyzed by adding pyruvate to the reaction mixture to a final concentration of 5 mM, then determining pyruvate carboxylase activity in the presence of increasing amounts of […]. […]

[2] = test system: biotinylated R. etli pyruvate carboxylase expressed in E. coli; test: Western blot of in vivo biotinylated pyruvate carboxylase in MG1655 pUC18-pyc cells grown with varying biotin; type: cell-based; conditions: M9 media, 37° C., mid-log
Description: Protein gels and Western blotting. Heat-denatured cell extracts were separated on 10% SDS-PAGE gels as per Altman et. al. (J. Bact., 155, 1130-1137 (1983)) and Western blots were carried out as per Carroll and Gherardini (Infect. Immun., 64, 392-398 (1996)). ALS225 E. coli cells containing either pUC18 or pUC18-pyc were grown to mid-log in rich media at 37° C. both in the presence and absence of IPTG. Because ALS225 contains lacIq1 on the F′, significant induction of the pUC18-pyc construct should not occur unless IPTG is added. Protein extracts were prepared, subjected to SDS PAGE, and Western blotted. Proteins which had been biotinylated in vivo were then detected using the Sigma-Blot protein detection kit (Sigma Chemical Corp., St. Louis, Mo.). The instructions of the manufacturer were followed except that during the development of the western blots the protein biotinylation step was omitted, thus allowing for the detection of only those proteins which had been biotinylated in vivo.
Effects of biotin and biotin holoenzyme synthase on the expression of biotinylated R. etli pyruvate carboxylase in E. coli. […] Proteins which had been biotinylated in vivo were then detected using the Sigma-Blot protein detection kit, as described above. […] The amount of biotinylated pyruvate carboxylase that was present in each sample was quantitated using a Stratagene Eagle Eye II Still Video. […]

[3] = substrate: CC(=O)C(=O)O; test: Pyruvate carboxylase (PC) coupled enzyme assay (Payne and Morris) with E. coli cell extracts; type: biochemical, R. etli; conditions: other: MG1655 pUC18-pyc extract; ATP 5 mM; Lineweaver-Burke plot; pH 8.0
Description: Pyruvate carboxylase (PC) enzyme assay. For pyruvate carboxylase activity measurements, 100 mL of mid-log phase culture was harvested by centrifugation at 7,000×g for 15 minutes at 4° C. and washed with 10 mL of 100 mM Tris-Cl (pH 8.0). The cells were then resuspended in 4 mL of 100 mM Tris-Cl (pH 8.0) and subsequently subjected to cell disruption by sonication. The cell debris was removed by centrifugation at 20,000×g for 15 minutes at 4° C. The pyruvate carboxylase activity was measured by the method of Payne and Morris (J. Gen. Microbiol., 59, 97-101 (1969)). […] The rate of increase in absorbence at 412 nm due to the presence of CoA-dependent formation of the 5-thio-2-nitrobenzoate was monitored, first after the addition of pyruvate and then after the addition of ATP. […] The total protein in the cell extracts was determined by the Lowry method (O. Lowry et al., J. Biol. Chem., 193, 265-275 (1951)).
R. etli pyruvate carboxylase can convert pyruvate to oxaloacetate in E. coli. […] ATP was added at a final concentration of 5 mM to the reaction mixture and pyruvate carboxylase activity was determined in the presence of increasing amounts of pyruvate. […]

Molecule: Nc1ncnc2c1ncn2[C@@H]1O[C@H](COP(=O)(O)OP(=O)(O)O)[C@@H](O)[C@H]1O [ADP, adenosine diphosphate]
- Ki [1]: 142 µM
- mode of inhibition of pyruvate carboxylase ([1]; MG1655 pUC18-pyc extract, pyruvate 5 mM, increasing ATP): competitive inhibitor of ATP

Molecule: Nc1ncnc2c1ncn2[C@@H]1O[C@H](COP(=O)(O)OP(=O)(O)OP(=O)(O)O)[C@@H](O)[C@H]1O [ATP]
- Km ([1]; MG1655 pUC18-pyc extract, pyruvate 5 mM, Lineweaver-Burke plot, read-out: saturation constant (Km) for expressed pyruvate carboxylase with respect to ATP): 193 µM

- effect of nicotinamide nucleotides on pyruvate carboxylase activity [1]: did not
Molecule: NC(=O)c1ccc[n+]([C@@H]2O[C@H](COP(=O)([O-])OP(=O)(O)OC[C@H]3O[C@@H](n4cnc5c(N)ncnc54)[C@H](O)[C@@H]3O)[C@@H](O)[C@H]2O)c1 [NAD+]

Molecule: NC(=O)C1=CN([C@@H]2O[C@H](COP(=O)(O)OP(=O)(O)OC[C@H]3O[C@@H](n4cnc5c(N)ncnc54)[C@H](O)[C@@H]3O)[C@@H](O)[C@H]2O)C=CC1 [NADH, reduced nicotinamide adenine dinucleotide]
- effect of nicotinamide nucleotides on pyruvate carboxylase activity [1]: inhibited pyruvate carboxylase

- effect of nicotinamide nucleotides on pyruvate carboxylase activity [1]: did not
Molecule: NC(=O)c1ccc[n+]([C@@H]2O[C@H](COP(=O)([O-])OP(=O)(O)OC[C@H]3O[C@@H](n4cnc5c(N)ncnc54)[C@H](OP(=O)(O)O)[C@@H]3O)[C@@H](O)[C@H]2O)c1 [NADP+]

- effect of nicotinamide nucleotides on pyruvate carboxylase activity [1]: did not
Molecule: NC(=O)C1=CN([C@@H]2O[C@H](COP(=O)(O)OP(=O)(O)OC[C@H]3O[C@@H](n4cnc5c(N)ncnc54)[C@H](OP(=O)(O)O)[C@@H]3O)[C@@H](O)[C@H]2O)C=CC1 [NADPH]

Molecule: N[C@@H](CC(=O)O)C(=O)O [aspartate]
- remaining activity at 8000 µM ([1]; read-out: pyruvate carboxylase specific activity remaining): ~43%

Molecule: O=C(O)CCCC[C@@H]1SC[C@@H]2NC(=O)N[C@@H]21 [biotin]
- biotin concentration sufficient to biotinylate all of the expressed pyruvate carboxylase [2]: 50 ng/mL

B1: R. etli pyruvate carboxylase (Rhizobium etli CFN 42) (protein)
chain: MPISKILVANRSEIAIRVFRAANELGIKTVAIWAEEDKLALHRFKADESYQVGRGPHLARDLGPIESYLSIDEVIRVAKLSGADAIHPGYGLLSESPEFVDACNKAGIIFIGPKADTMRQLGNKVAARNLAISVGVPVVPATEPLPDDMAEVAKMAAAIGYPVMLKASWGGGGRGMRVIRSEADLAKEVTEAKREAMAAFGKDEVYLEKLVERARHVESQILGDTHGNVVHLFERDCSVQRRNQKVVERAPAPYLSEAQRQELAAYSLKIAGATNYIGAGTVEYLMDADTGKFYFIEVNPRIQVEHTVTEVVTGIDIVKAQIHILDGAAIGTPQSGVPNQEDIRLNGHALQCRVTTEDPEHNFIPDYGRITAYRSASGFGIRLDGGTSYSGAIITRYYDPLLVKVTAWAPNPLEAISRMDRALREFRIRGVATNLTFLEAIIGHPKFRDNSYTTRFIDTTPELFQQVKRQDRATKLLTYLADVTVNGHPEAKDRPKPLENAARPVVPYANGNGVKDGTKQLLDTLGPKKFGEWMRNEKRVLLTDTTMRDGHQSLLATRMRTYDIARIAGTYSHALPNLLSLECWGGATFDVSMRFLTEDPWERLALIREGAPNLLLQMLLRGANGVGYTNYPDNVVKYFVRQAAKGGIDLFRVFDCLNWVENMRVSMDAIAEENKLCEAAICYTGDILNSARPKYDLKYYTNLAVELEKAGAHIIAVKDMAGLLKPAAAKVLFKALREATGLPIHFHTHDTSGIAAATVLAAVEAGVDAVDAAMDALSGNTSQPCLGSIVEALSGSERDPGLDPAWIRRISFYWEAVRNQYAAFESDLKGPASEVYLHEMPGGQFTNLKEQARSLGLETRWHQVAQAYADANQMFGDIVKVTPSSKVVGDMALMMVSQDLTVADVVSPDREVSFPESVVSMLKGDLGQPPSGWPEALQKKALKGEKPYTVRPGSLLKEADLDAERKVIEKKLEREVSDFEFASYLMYPKVFTDFALASDTYGPVSVLPTPAYFYGLADGEELFADIEKGKTLVIVNQAVSATDSQGMVTVFFELNGQPRRIKVPDRAHGATGAAVRRKAEPGNAAHVGAPMPGVISRVFVSSGQAVNAGDVLVSIEAMKMETAIHAEKDGTIAEVLVKAGDQIDAKDLLAVYGG
- Km [3]: 249 µM
